Test results from article PMC6972889, “Structural insight into small molecule action on Frizzleds” (Nature Communications, 2020).
Where a name gives a salt, the structure may show the parent alone.

Key:
[1] = target: T1, FZD6 (Nluc–FZD6; SNAP–FZD6; SNAP–FZD6–Rluc8; FLAG–FZD6–Nluc) (Homo sapiens, UniProt O60353); test: NanoBRET competition binding, living SMO-knockout HEK293 cells; assay type: cell-based
T1 construct: expressed in SMO-knockout HEK293 cells
T1 sequence (O60353 19-706): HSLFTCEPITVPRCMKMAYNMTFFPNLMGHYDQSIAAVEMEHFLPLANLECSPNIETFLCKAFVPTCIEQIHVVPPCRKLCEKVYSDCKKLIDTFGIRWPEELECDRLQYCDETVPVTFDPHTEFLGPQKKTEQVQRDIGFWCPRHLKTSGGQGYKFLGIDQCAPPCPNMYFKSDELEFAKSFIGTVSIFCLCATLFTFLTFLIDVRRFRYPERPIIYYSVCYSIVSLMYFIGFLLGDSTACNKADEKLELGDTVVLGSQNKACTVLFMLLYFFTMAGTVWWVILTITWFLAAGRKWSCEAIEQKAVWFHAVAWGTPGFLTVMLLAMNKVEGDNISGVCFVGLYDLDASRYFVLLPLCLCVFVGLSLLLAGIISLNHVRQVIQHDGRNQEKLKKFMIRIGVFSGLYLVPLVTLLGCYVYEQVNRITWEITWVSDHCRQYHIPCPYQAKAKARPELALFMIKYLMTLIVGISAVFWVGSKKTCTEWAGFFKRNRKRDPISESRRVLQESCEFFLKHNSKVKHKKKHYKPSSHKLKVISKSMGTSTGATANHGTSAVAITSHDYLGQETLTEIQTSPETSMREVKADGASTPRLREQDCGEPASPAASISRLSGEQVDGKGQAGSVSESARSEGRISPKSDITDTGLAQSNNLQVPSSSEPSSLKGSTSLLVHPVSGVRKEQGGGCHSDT

[2] = target: T1, FZD6 (Nluc–FZD6; SNAP–FZD6; SNAP–FZD6–Rluc8; FLAG–FZD6–Nluc); test: BRET Venus–mGsi recruitment in SMO-knockout HEK293 cells; assay type: cell-based; conditions: agonist; bell-shaped curve
FZD6–FlAsH–TFP = target: T2, FZD6–FlAsH–TFP (Homo sapiens, UniProt O60353, INS404FLNCCPGCCMEP); test: intramolecular FRET conformational probe in HEK293 cells; assay type: cell-based
T2 construct: from FZD6–GFP; expressed in HEK293 cells
T2 sequence (O60353 with tags, fused parts or gaps INS404FLNCCPGCCMEP): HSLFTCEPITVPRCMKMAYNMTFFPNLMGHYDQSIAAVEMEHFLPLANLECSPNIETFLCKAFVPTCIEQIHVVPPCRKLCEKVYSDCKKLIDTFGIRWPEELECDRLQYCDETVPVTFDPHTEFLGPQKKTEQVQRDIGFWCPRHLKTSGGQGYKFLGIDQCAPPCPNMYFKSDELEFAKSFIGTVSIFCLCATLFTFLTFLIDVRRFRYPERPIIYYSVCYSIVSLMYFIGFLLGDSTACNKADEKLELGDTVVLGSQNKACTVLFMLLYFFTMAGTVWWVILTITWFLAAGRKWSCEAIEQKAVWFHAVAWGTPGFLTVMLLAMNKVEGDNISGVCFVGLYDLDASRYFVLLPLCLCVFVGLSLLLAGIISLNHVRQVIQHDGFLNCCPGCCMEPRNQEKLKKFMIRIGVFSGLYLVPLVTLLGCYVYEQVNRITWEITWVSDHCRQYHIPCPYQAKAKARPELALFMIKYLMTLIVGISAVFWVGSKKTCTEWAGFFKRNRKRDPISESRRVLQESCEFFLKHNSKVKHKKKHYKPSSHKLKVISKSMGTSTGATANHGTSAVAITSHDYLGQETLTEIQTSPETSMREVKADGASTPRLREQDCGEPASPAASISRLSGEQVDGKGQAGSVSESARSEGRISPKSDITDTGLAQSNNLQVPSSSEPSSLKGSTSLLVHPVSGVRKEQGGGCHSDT

[3] = target: T3, FZD4 (FZD4–Nluc; SNAP–FZD4) (Homo sapiens, UniProt Q9ULV1); test: BRET Venus–mG13 recruitment to FZD4–Nluc; assay type: cell-based; conditions: negative control subtype
T3 construct: full-length receptor with C-terminal Nluc or N-terminal SNAP; expressed in HEK293-derived cells
T3 sequence (Q9ULV1 37-537): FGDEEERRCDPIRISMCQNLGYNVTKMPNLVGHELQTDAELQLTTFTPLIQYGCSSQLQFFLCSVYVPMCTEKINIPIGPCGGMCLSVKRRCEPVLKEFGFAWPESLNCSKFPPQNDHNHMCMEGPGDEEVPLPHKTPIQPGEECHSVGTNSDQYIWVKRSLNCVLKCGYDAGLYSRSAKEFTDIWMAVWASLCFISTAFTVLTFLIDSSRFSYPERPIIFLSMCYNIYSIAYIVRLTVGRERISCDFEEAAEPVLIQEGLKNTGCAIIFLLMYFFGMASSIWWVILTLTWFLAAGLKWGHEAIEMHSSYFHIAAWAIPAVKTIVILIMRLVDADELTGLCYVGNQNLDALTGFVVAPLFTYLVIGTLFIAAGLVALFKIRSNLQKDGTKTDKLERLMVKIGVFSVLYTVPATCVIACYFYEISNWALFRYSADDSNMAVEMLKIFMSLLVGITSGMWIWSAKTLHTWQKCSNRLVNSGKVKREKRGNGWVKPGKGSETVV

[4] = target: T1, FZD6 (Nluc–FZD6; SNAP–FZD6; SNAP–FZD6–Rluc8; FLAG–FZD6–Nluc); test: BRET Venus–mGsi recruitment to SNAP–FZD6–Rluc8; assay type: cell-based; conditions: agonist; no bell shape
SMO–Rluc8 = target: T4, SMO–Rluc8 (Mus musculus, UniProt P56726); test: BRET Venus–mGsi recruitment to SMO–Rluc8; assay type: cell-based; conditions: agonist; no bell shape
T4 construct: full-length receptor with C-terminal Rluc8; expressed in HEK293-derived cells
T4 sequence (P56726 33-793): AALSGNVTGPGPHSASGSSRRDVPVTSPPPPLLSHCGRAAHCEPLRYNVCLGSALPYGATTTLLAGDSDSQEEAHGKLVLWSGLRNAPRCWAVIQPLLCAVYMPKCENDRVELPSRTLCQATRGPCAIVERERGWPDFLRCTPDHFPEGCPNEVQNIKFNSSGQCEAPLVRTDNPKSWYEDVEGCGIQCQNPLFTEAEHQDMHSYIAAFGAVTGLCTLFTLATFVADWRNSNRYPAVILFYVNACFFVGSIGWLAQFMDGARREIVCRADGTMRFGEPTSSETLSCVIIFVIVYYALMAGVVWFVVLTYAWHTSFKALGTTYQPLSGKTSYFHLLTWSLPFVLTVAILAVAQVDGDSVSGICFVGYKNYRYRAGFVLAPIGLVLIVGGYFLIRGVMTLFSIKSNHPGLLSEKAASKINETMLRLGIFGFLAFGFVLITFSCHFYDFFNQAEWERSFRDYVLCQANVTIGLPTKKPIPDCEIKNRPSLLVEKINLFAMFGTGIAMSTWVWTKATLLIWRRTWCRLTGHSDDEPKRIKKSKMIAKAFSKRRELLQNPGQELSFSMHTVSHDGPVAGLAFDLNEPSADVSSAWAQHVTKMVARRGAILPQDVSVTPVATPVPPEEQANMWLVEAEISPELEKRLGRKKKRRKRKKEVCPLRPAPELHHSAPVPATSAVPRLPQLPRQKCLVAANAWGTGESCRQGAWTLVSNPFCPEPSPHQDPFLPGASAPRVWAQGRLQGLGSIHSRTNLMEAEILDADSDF

[5] = target: T1, FZD6 (Nluc–FZD6; SNAP–FZD6; SNAP–FZD6–Rluc8; FLAG–FZD6–Nluc); test: NanoBRET saturation binding, living SMO-knockout HEK293 cells; assay type: cell-based; conditions: Nluc–FZD6, 90 min, 37 °C; labelled compound
FZD6–FlAsH–TFP (human) = target: T5, FZD6–FlAsH–TFP (human) (UniProt O60353)
T5 sequence (chain, FlAsH (fluorescein arsenical hairpin binder) labelled on the FlAsH-binding motif): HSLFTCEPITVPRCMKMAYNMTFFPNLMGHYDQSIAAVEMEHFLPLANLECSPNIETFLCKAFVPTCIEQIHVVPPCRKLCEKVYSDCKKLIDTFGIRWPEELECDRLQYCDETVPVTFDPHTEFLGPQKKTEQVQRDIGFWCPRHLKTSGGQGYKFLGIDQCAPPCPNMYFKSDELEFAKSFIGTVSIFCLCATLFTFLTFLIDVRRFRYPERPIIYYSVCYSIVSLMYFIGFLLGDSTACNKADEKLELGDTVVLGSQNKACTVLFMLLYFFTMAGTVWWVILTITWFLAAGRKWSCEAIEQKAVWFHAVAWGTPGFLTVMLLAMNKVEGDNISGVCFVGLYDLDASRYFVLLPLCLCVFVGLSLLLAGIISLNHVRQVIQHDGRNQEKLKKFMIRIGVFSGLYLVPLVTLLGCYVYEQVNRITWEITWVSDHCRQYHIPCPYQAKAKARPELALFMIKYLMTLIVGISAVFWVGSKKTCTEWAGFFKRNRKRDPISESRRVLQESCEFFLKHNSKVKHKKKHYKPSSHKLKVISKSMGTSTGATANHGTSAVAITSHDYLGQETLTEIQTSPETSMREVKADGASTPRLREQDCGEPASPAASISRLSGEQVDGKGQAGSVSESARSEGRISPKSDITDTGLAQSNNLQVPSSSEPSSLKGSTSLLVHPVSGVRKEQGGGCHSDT

Molecule: CN[C@H]1CC[C@H](N(Cc2cccc(-c3ccncc3)c2)C(=O)c2sc3ccccc3c2Cl)CC1 [SAG1.3, 3-chloro-N-[trans-4-(methylamino)cyclohexyl]-N-[[3-(4-pyridinyl)phenyl]methyl]-benzo[b]thiophene-2-carboxamide dihydrochloride]
- Ki [1]: 2510 nM
- EC50 [2]: A similar biphasic concentration–response curve was observed
- EC50 (FZD6–FlAsH–TFP): 316 nM
- BRET Venus-mG13 recruitment to FZD4-Nluc [3]: we did not detect any SAG1.3-induced Venus–mG13 recruitment

Molecule: c1ccc2c(Oc3nc(Nc4ccc(N5CCOCC5)cc4)c4ncn(C5CCCCC5)c4n3)cccc2c1 [purmorphamine, 9-cyclohexyl-N-[4-(4-morpholinyl)phenyl]-2-(1-naphthalenyloxy)-9H-purin-6-amine]
- EC50 [4]: concentration-dependent recruitment of Venus–mGsi to SMO–Rluc8 (d) and SNAP–FZD6–Rluc8
- EC50 (SMO–Rluc8): concentration-dependent recruitment of Venus–mGsi to SMO–Rluc8 and SNAP–FZD6–Rluc8

Molecule: CC1=C2CC3C(CC=C4C[C@@H](O)CCC43C)C2CCC12O[C@@H]1CC(C)CN(CCNC(=O)CCCCCNC(=O)CCC3=[N+]4C(=Cc5c(C)cc(C)n5[B-]4(F)F)C=C3)C1C2C (stereo partly drawn) [BODIPY–cyclopamine]
- pKd [5]: 6.3 ± 0.1

B1: recombinant WNT-5A (ligand)
chain: IIGAQPLCSQLAGLSQGQKKLCHLYQDHMQYIGEGAKTGIKECQYQFRHRRWNCSTVDNTSVFGRVMQIGSRETAFTYAVSAAGVVNAMSRACREGELSTCGCSRAARPKDLPRDWLWGGCGDNIDYGYRFAKEFVDARERERIHAKGSYESARILMNLHNNEAGRRTVYNLADVACKCHGVSGSCSLKTCWLQLADFRKVGDALKEKYDSAAAMRLNSRGKLVQVNSRFNSPTTQDLVYIDPSPDYCVRNESTGSLGTQGRLCNKTSEGMDGCELMCCGRGYDQFKTVQTERCHCKFHWCCYVKCKKCTEIVDQFVCK
- decrease of the intramolecular FRET ratio (FlAsH/TFP) of the FZD6–FRET probe in HEK293 cells with increasing concentrations of WNT-5A; log10EC50 (log10 (ng ml^−1)) (FZD6–FlAsH–TFP (human)): 2.2
- decrease of the intramolecular FRET ratio (FlAsH/TFP) of the FZD6–FRET probe in HEK293 cells, WNT-5A up to 1000 ng ml^−1; maximum efficacy (FZD6–FlAsH–TFP (human)): 4.9%
